Experimental findings from patent publication US20200339544A1 (JOINT STOCK COMPANY "BIOCAD", priority 2017, published 2020) are described below.

The test system of one data set is HepG2 cells. Description: General cytotoxicity on HepG2 cells. The format is cell-based. The following applies: therapeutic index, CC50 HepG2 / IC50 H1975. A digest of the protocol: (§1)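 HepG2 cells seeded at 2*10^4 cells per well and compounds added in DMEM with 2% FBS for 72 h at 37 °C. Viability read with Alamar Blue and CC50 derived as for IC50. Therapeutic index taken as HepG2 CC50 over H1975 IC50.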

Data set [1] can be described thus: General cytotoxicity on HepG2 cells. The conditions noted are these: human; general cytotoxicity, HepG2 cells, 72 hours, average of several tests. The format is cell-based. A digest of the protocol: as §1
Data set [2] has as its target T1, DM EGFR (DoubleMutantEGFR, L828R/T790M) (Homo sapiens, UniProt P00533, L858R/T790M).
T1 construct: purchased SignalChem
Description: Inhibition of DM EGFR kinase activity (ADP-Glo). Format: biochemical. The conditions noted are these: for IC50: inhibition of kinase activity, EGFR DM (L828R/T790M); for SI, IC50(WT)/IC50(DM): selectivity index, kinase EGFR WT vs EGFR DM. A digest of the protocol:
(§2)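 Luminescent ADP-Glo readout was used for both wild-type and L858R/T790M EGFR, each run 180 minutes at 37° C. Reactions used a solution of 50 μM ATP with 0.5 mg/mL peptide substrate. Four-parameter logistic curves gave IC50.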
For orientation: ADP-Glo first removes unused ATP, then detects ADP through luciferase.

Data set [3] can be described thus: Enzyme stability in human liver S9 fractions. Format: in vitro ADME. The following applies: 0.5 mg/mL pooled human liver S9 fractions; 10 μM compound; 37° C.; pH 7.4; read-out: Stability in liver S9 fractions, Clint. A digest of the protocol:
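Compound at 10 μM was incubated at 37 °C with 0.5 mg/mL pooled human liver S9, 2 mM β-NAD and 4 mM MgCl2 in 0.1 M sodium phosphate, pH 7.4, then quenched with acetonitrile and analysed chromatographically. T½ and CLint were derived from the slope of log peak area versus time.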

Another data set deals with T2, WT EGFR (Wild-Type EGFR) (Homo sapiens, UniProt P00533).
T2 construct: purchased SignalChem
Description: Inhibition of WT EGFR kinase activity (ADP-Glo). Format: biochemical. A digest of the protocol:
as §2

The test system of data set [4] is H1975 (lung adenocarcinoma, DM, L828R/T790M). Description: Antiproliferative activity on H1975 cells (Alamar Blue). The following applies: for IC50: Homo sapiens, NCI-H1975, H1975 cells; for SI IC50(A549)/IC50(DM): selectivity index, A549 vs H1975 cells. The format is cell-based. A digest of the protocol:
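IC50 was fitted with a four-parameter logistic model to Alamar Blue fluorescence (540/590 nm), read 3-5 h after dye addition. Before that, compounds acted on attached H1975 cells, 15*10^3 per well in 2% FBS RPMI-1640, for 72 h at 37 °C, DMSO no more than 1%.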
(The colour change of resazurin is a common sign of viable cells or microbes.)

Data set [5] deals with A549 (lung adenocarcinoma, WT). Description: Antiproliferative activity on A549 cells (Alamar Blue). The conditions noted are these: Homo sapiens, antiproliferative test. Format: cell-based. A digest of the protocol: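 Viability read by Alamar Blue fluorescence (λEx 540, λEm 590 nm) 3-5 h after dye addition, following 72 h compound treatment at 37° C in 2% FBS RPMI-1640, ≤1% DMSO. Seeding 5*10^3 cells/well, 16-18 h attachment. Four-parameter logistic model gave IC50.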

Where [6] appears, read: average values obtained in several tests, Table 16, read-out: H1975 (DM) IC50.
The mark [7] stands for this setting: antiproliferative test, Table 15, read-out: IC50 H1975 (DM).

Read-outs that look alike come from different tables or passages of the source.

In general, CC50 refers to the concentration that lowers cell viability or growth by half. Higher therefore signals better tolerance by the cells. As a reminder, the IC50 is the point on the concentration scale where inhibition reaches its midpoint. With `C=CC(=O)Nc1cc(Nc2nccc(C(=O)c3ccc(Oc4ccccc4)cc3)n2)c(OC)cc1N(C)CCN(C)C` [EGFR_3365_17, N-(2-((2-(dimethylamino)ethyl)(methyl)amino)-4-methoxy-5-((4-(4-phenoxybenzoyl)pyrimidin-2-yl)amino)phenyl)acrylamide], the “TI, CC50/IC50” value in the data set on HepG2 cells was found to be 16. The molecule also came in with a CC50 at 72 h in data set [1] of 6320 nM. In addition, the IC50 in data set [2] is 21.5 nM; on WT EGFR (Wild-Type EGFR), 171 nM; in data set [4] (setting [6]), 393 nM; in data set [4] (setting [7]), 394 nM; in data set [5] it was 2390 nM. The “SI, IC50(WT)/IC50(DM)” value in data set [2] was determined as 7.95. Further, in data set [3], the Intrinsic clearance in human liver S9 fractions at 10 µM is 10.9 µL/min/mg. Further, the “SI IC50(A549)/IC50(DM)” value in data set [4] turned out to be 6.08.

`C=CC(=O)Nc1cc(Nc2nccc(C(=O)c3ccc(OCCC)cc3)n2)c(OC)cc1N(C)CCN(C)C` [EGFR_3365_30, N-(2-((2-(dimethylamino)ethyl)(methyl)amino)-4-methoxy-5-((4-(4-propoxybenzoyl)pyrimidin-2-yl)amino)phenyl)acrylamide]: the “TI, CC50/IC50” value with HepG2 cells was determined as 666. Besides, in data set [1], the CC50 at 72 h was 10900 nM. In addition, the IC50 in data set [2] turned out to be 7.69 nM; on WT EGFR (Wild-Type EGFR), 613 nM; in data set [4] (setting [6]), 16.4 nM; in data set [4] (setting [7]) it was 16.4 nM; in data set [5], 5540 nM. Moreover, the “SI, IC50(WT)/IC50(DM)” value in data set [2] came out at 79.77. Also, the Intrinsic clearance in human liver S9 fractions at 10 µM in data set [3] turned out to be 1.2 µL/min/mg. Further, the “SI IC50(A549)/IC50(DM)” value in data set [4] is 337.72.

Regarding `C=CC(=O)Nc1cc(Nc2cc(C(=O)c3ccc(OCCC)cc3)ccn2)c(OC)cc1N(C)CCN(C)C` [EGFR_3365_50, N-(2-((2-(dimethylamino)ethyl)(methyl)amino)-4-methoxy-5-((4-(4-propoxybenzoyl)pyridin-2-yl)amino)phenyl)acrylamide], in the data set with HepG2 cells, the “TI, CC50/IC50” value was determined as 262. The CC50 at 72 h in data set [1] stood at 12400 nM. Further, the IC50 in data set [2] came to 3.29 nM; against WT EGFR (Wild-Type EGFR), 32 nM; in data set [4] (setting [6]) it was 47.5 nM; in data set [4] (setting [7]), 47.5 nM; in data set [5], 4920 nM. In addition, in data set [2], the “SI, IC50(WT)/IC50(DM)” value was 9.74. The Intrinsic clearance in human liver S9 fractions at 10 µM in data set [3] came out at 1.1 µL/min/mg. Moreover, the “SI IC50(A549)/IC50(DM)” value in data set [4] is on record as 104.

For the molecule `C=CC(=O)Nc1cc(Nc2cc(C(=O)c3ccc(OC)cc3)ccn2)c(OC)cc1N(C)CCN(C)C` [EGFR_3365_51, N-(2-((2-(dimethylamino)ethyl)(methyl)amino)-4-methoxy-5-((4-(4-methoxybenzoyl)pyridin-2-yl)amino)phenyl)acrylamide], the “TI, CC50/IC50” value in the data set on HepG2 cells was 620. This molecule yielded a CC50 at 72 h in data set [1] of 20900 nM. The IC50 in data set [2] turned out to be 4.72 nM; on WT EGFR (Wild-Type EGFR) it was 50.8 nM; in data set [4] (setting [6]) it was 33.8 nM; in data set [4] (setting [7]) it was 33.8 nM; in data set [5], 11500 nM. In data set [2], the “SI, IC50(WT)/IC50(DM)” value was determined as 10.75. The Intrinsic clearance in human liver S9 fractions at 10 µM in data set [3] amounted to 16.2 µL/min/mg. Moreover, the “SI IC50(A549)/IC50(DM)” value in data set [4] worked out at 340.

In the case of `C=CC(=O)Nc1cc(Nc2cc(C(=O)c3ccc(OCC)cc3)ccn2)c(OC)cc1N(C)CCN(C)C` [EGFR_3365_52, N-(2-((2-(dimethylamino)ethyl)(methyl)amino)-5-((4-(4-ethoxybenzoyl)pyridin-2-yl)amino)-4-methoxyphenyl) acrylamide], the “TI, CC50/IC50” value in the data set on HepG2 cells is on record as 237. Moreover, in data set [1], half-maximal cytotoxicity (CC50 at 72 h) was put at 15600 nM. Moreover, the IC50 in data set [2] was determined as 6.41 nM; on WT EGFR (Wild-Type EGFR) it was 67.9 nM; in data set [4] (setting [6]), 66.1 nM; in data set [4] (setting [7]), 66.1 nM; in data set [5] it was 10800 nM. Besides, the “SI, IC50(WT)/IC50(DM)” value in data set [2] is 10.58. For the same molecule, the Intrinsic clearance in human liver S9 fractions at 10 µM in data set [3] was 16.6 µL/min/mg. Moreover, the “SI IC50(A549)/IC50(DM)” value in data set [4] is 164.
